Laboratory results: PMC6746272, “Towards discovery of novel scaffold with potent antiangiogenic activity; design, synthesis of pyridazine based compounds, impact of hinge interaction, and accessibility of their bioactive conformation on VEGFR-2 activities” (Journal of Enzyme Inhibition and Medicinal Chemistry, 2019)
Read-outs that look alike come from different tables or passages of the source. One block for each compound: values may come before it.

Columns and labels:
VEGFR-2 = molecular target: T1, VEGFR-2 (Homo sapiens, UniProt P35968); test: VEGFR-2 kinase inhibition assay (Alpha Screen, phosphotyrosine antibody); format: biochemical; details: for inhibition at 10 µM: read-out: VEGFR-2% inhibition
T1 construct: purchased Millipore, United Kingdom
Experimental: The kinase activity of VEGFR-2 was measured by use of a phosphotyrosine antibody with the
Alpha Screen system (PerkinElmer, United States) according to manufacturer’s instructions. Enzyme reactions were performed in 50 mM Tris–HCl pH 7.5, 5 mM MnCl2, 5 mM MgCl2, 0.01% Tween-20 and 2 mM DTT, containing 10 μM ATP, 0.1 μg/mL biotinylated poly-GluTyr (4:1), and 0.1 nM of VEGFR-2 (Millipore, United Kingdom). Prior to catalytic initiation with ATP, the tested compounds at final concentrations ranging from 0 to 100 μg/mL and enzyme were incubated for 5 min at room temperature. […] Plate was incubated in the dark overnight and then read by ELISA Reader (PerkinElmer, United States). Wells containing the substrate and the enzyme without compounds were used as reaction control. Wells containing biotinylated poly-GluTyr (4:1) and enzyme without ATP were used as basal control. Percent inhibition was calculated by the comparison of compounds treated to control incubations.

HUVEC cell line = test: In vitro HUVEC anti-proliferative assay (alamar Blue); format: cell-based, human; details: for HUVEC proliferation (%): 72 h, Mean ± SD, n = 3
Experimental: Compounds 8c, 8f, 15, 18b, and 18c were selected to be tested for their ability to in vitro inhibit VEGF-induced HUVEC cell line proliferation, using doxorubicin as a control.
The assay was performed at single dose concentration of 10 µM, where HUVEC, human (Life Technologies # C-003-5C) served as the cells’ source, in Medium 200 (Life Technologies # M-200–500), with large vessel endothelial supplement (LVES) (Life Technologies # A14608-01) and Pen-strep (Hyclone # SV30010). Alamar Blue (Life Technologies # DAL1025) was used as the fluorescent reagent.
HUVEC cells were cultured in Medium 200 with 2% LVES and 1% Pen-strep. To perform the proliferation assay, HUVEC cells were seeded at 5000 cells/50 μl/well in a 96-well black clear bottom tissue culture plate. Cells were incubated at 37 °C and 5% CO2 overnight to allow them to recover and reattach. Next day cells were treated with test compounds for 72 h. After treatment, cell proliferation was measured by Fluorescent quantitation of alamar Blue reagent. The alamar Blue assay incorporates a fluorometric/colorimetric growth indicator based on detection of metabolic activity. Specifically, resazurin, the active ingredient in the alamar Blue reagent, is blue in colour and virtually non-fluorescent. Upon entering cells, resazurin is reduced to resorufin, a compound that is red in colour and highly fluorescent. Continued cell growth maintains a reduced environment, therefore increasing the overall fluorescence and colour of the media surrounding cells. […] To perform the alamar Blue assay, […] of alamar Blue reagent was added to each well and the plate was incubated at 37 °C for an additional 2 h. Fluorescence intensity was measured at an excitation of 530 nm and an emission of 590 nm using a BioTek SynergyTM 2 microplate reader.
Cell proliferation assays were performed in triplicate at each concentration. The fluorescent intensity data were analysed using the computer software, Graphpad Prism. In the absence of the compound, the fluorescent intensity (Ft) in each data set was defined as 100%. In the absence of cells, the fluorescent intensity (Fb) in each data set was defined as 0%. The percent cell in the presence of each compound was calculated according to the following equation: % Cell = (F – Fb)/(Ft – Fb), where F = the fluorescent intensity in the presence of the compound, Fb = the fluorescent intensity in the absence of cells, and Ft = the fluorescent intensity in the absence of the compound.

NCI 56 cell line panel = test: NCI primary anticancer assay, mean over panel (SRB); format: cell-based, human; details: 10–5 M
Experimental: The selected compounds were evaluated at primary anticancer assay against a panel of 56 cancer lines at concentration 10–5 M. The human tumour cell lines were derived from nine different cancer types: leukaemia, melanoma, lung, colon, CNS, ovarian, renal, prostate, and breast cancers.
A 48 h drug exposure protocol was used and sulforhodamine B (SRB) protein assay was applied to estimate the cell viability and growth. The mean percentages GI (GI%) of the tested compounds over the full panel of cell lines are illustrated in Figure 4.
The cytotoxicity assays were performed at NCI, Bethesda, United States (against 56 cell lines). […]
Experimental drugs were solubilised in dimethyl sulfoxide at 400-fold the desired final maximum test concentration and stored frozen prior to use. […] Bound stain was subsequently solubilised with 10 mM trizma base, and the absorbance was read on an automated plate reader at a wavelength of 515 nm. […] Using the seven absorbance measurements [time zero (Tz), control growth (C), and test growth in the presence of drug at the five concentration levels (Ti)], the percentage growth was calculated at each of the drug concentration levels. Percentage GI was calculated as: [(Ti – Tz)/(C – Tz)] × 100 for concentrations for which Ti ≥ Tz [(Ti – Tz)/Tz] × 100 for concentrations for which Ti < Tz.

VEGFR2 = tested on: VEGFR2; parameters: method as in PMID 23123015, PMID 23305239; details: read-out: inhibits VEGFR2; cited from earlier work
PDGFRβ = tested on: PDGFRβ; parameters: method as in PMID 23123015, PMID 23305239; details: read-out: inhibits PDGFRβ; cited from earlier work
VEGFR3 = tested on: VEGFR3; parameters: method as in PMID 23123015, PMID 23305239; details: read-out: inhibits VEGFR3; cited from earlier work
VEGFR1 = tested on: VEGFR1; parameters: method as in PMID 23123015, PMID 23305239; details: read-out: inhibits VEGFR1; cited from earlier work
PDGFRα = tested on: PDGFRα; parameters: method as in PMID 23123015, PMID 23305239; details: read-out: inhibits PDGFRα; cited from earlier work
[1] = single concentration of 10 µM, Mean ± SD, n = 3
[2] = 5 concentrations 1 nM - 10 µM, Mean ± SD, n = 3, read-out: VEGFR-2 IC50

T1 sequence (P35968 20-1356): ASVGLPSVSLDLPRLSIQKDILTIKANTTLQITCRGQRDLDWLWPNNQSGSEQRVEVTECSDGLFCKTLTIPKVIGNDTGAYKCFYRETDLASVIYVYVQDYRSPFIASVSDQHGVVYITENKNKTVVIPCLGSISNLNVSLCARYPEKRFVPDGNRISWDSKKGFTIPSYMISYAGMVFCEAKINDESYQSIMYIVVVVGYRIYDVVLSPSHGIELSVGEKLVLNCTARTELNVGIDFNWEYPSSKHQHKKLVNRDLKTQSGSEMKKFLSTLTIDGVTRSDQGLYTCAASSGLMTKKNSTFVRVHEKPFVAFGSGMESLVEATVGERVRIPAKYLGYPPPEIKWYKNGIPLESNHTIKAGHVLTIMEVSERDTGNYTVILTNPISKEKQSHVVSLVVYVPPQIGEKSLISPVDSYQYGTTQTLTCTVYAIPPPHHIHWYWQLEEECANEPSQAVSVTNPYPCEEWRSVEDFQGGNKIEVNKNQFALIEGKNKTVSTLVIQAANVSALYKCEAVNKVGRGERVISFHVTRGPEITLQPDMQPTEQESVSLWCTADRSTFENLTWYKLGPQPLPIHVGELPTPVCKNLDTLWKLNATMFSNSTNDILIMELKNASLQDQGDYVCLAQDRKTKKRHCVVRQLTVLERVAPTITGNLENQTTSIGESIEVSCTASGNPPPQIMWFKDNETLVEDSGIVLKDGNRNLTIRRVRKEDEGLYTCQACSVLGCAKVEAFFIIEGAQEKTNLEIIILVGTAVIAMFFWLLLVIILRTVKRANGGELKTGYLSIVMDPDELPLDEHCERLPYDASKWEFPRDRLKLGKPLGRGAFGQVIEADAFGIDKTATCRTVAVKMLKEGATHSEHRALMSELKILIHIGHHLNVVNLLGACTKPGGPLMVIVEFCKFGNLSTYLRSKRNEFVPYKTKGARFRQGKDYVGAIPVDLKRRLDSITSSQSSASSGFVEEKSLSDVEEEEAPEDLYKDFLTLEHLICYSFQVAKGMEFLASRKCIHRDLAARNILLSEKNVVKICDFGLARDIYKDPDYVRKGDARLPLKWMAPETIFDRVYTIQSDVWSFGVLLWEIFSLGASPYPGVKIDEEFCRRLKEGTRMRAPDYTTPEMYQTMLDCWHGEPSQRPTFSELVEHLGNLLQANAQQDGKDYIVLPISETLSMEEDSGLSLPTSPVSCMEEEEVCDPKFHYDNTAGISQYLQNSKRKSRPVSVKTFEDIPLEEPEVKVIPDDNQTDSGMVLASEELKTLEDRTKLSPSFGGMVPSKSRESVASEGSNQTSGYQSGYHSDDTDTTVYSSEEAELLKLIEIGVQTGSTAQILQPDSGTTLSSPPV

Compound: 1-[3,4-Dichlorophenyl)-3–(6-morpholino-[1, 2, 4]triazolo[4,3-b]pyridazin-3-yl]urea [Compound 5a]
VEGFR-2% inhibition (VEGFR-2; [1]): 5.07 ± 0.61%

Compound: 1-[3-Methoxyphenyl)-3–(6-morpholino-[1, 2, 4]triazolo[4,3-b]pyridazin-3-yl]urea [Compound 5c]
VEGFR-2% inhibition (VEGFR-2; [1]): 13.10 ± 1.71%

Compound: 1-[4-((6-Chloropyridazin-3-yl)amino)phenyl)-3–(3,4-dichlorophenyl]urea [Compound 11d]
VEGFR-2% inhibition (VEGFR-2; [1]): 11.93 ± 2.25%

Compound: 1-[4-Chloro-3-(trifluoromethyl)phenyl)-3–(3-(6-oxo-1,6-dihydropyridazin-3-yl)phenyl]urea [Compound 8e]
VEGFR-2% inhibition (VEGFR-2; [1]): 27.03 ± 3.29%

Compound: CN[C@@H]1C[C@H]2O[C@@](C)([C@@H]1OC)n1c3ccccc3c3c4c(c5c6ccccc6n2c5c31)C(=O)NC4 [Strausporine, staurosporine, reference compound]
inhibition at 10 µM (VEGFR-2): 90.5 ± 4.53%

Compound: Cc1cc(C(=O)Nc2cc(Oc3ccc4nc(NC(=O)C5CC5)cn4n3)ccc2C)n(C)n1 [TAK-593]
IC50 (VEGFR2): 0.95 nM | IC50 (PDGFRβ): 13 nM | IC50 (VEGFR3): 1.1 nM | IC50 (VEGFR1): 3.2 nM | IC50 (PDGFRα): 4.3 nM

The next lines start with results.

VEGFR-2% inhibition (VEGFR-2; [1]): 7.07 ± 1.11%
Compound: 1-[4-Chloro-3-(trifluoromethyl)phenyl)-3–(6-morpholino-[1, 2, 4]triazolo[4,3-b]pyridazin-3-yl]urea [Compound 5b]

melting point: 173 to 175 °C | inhibition at 10 µM (VEGFR-2; [1]): 3.06 ± 0.45%
Compound: O=C(Nc1ccc(Cl)c(Cl)c1)Nc1nnc2ccc(Cl)nn12 [Compound 3]

IC50 (VEGFR-2; [2]): 1300 ± 140 nM
Compound: O=C(Nc1ccc(-c2ccc(=O)[nH]n2)cc1)Nc1ccc(Cl)c(C(F)(F)F)c1 [Compound 8c]
HUVEC proliferation (%) (HUVEC cell line; 10 µM): 14.75 ± 0.059%

IC50 (VEGFR-2; [2]): 1400 ± 120 nM | IC50 (VEGFR-2; unit given as nm, read-out: VEGFR-2 IC50 (nm)): 1410 nM
Compound: COc1ccc(Nc2ccc(NC(=O)Nc3ccc(Cl)c(C(F)(F)F)c3)cc2)nn1 [Compound 15, 1–(4-Chloro-3-(trifluoromethyl)phenyl)-3–(4-((6-methoxypyridazin-3-yl)amino)phenyl) urea]
HUVEC proliferation (%) (HUVEC cell line; 10 µM): 64.50 ± 2.017% | inhibition at 10 µM (HUVEC cell line; Homo sapiens, HUVEC, 10 µM, read-out: growth inhibition (GI) percent against HUVEC cell line): 35.5%

IC50 (VEGFR-2; [2]): 60.7 ± 0.03 nM
Compound: O=C(Nc1ccc(Oc2ccc(=O)[nH]n2)cc1)Nc1ccc(Cl)c(C(F)(F)F)c1 [Compound 18b, 1–(4-Chloro-3-(trifluoromethyl)phenyl)-3–(4-((6-oxo-1,6-dihydropyridazin-3-yl)oxy)phenyl)urea]
anti-proliferative activity against HUVEC (in words) (HUVEC cell line; 10 μM): potent anti-proliferative activity | HUVEC proliferation (%) (HUVEC cell line; 10 µM): 2.13 ± 0.425% | inhibitory activity against most of the test cell lines (in words) (NCI 56 cell line panel): weak inhibitory activity
